In paper PMC9594042, “Probing the KRas Switch II Groove by Fluorine NMR Spectroscopy” (ACS Chemical Biology, 2022):
Where two headings read alike, the source gives them in different places.

Legend:
[1] = target: T1, KRas^G12D GDP (Homo sapiens, UniProt P01116, G12D); type: binding; conditions: tested at 60 μM; probe 9 100 µM, protein 2 µM GDP-bound
T1 construct: HRas 1-166 (His-TEV-N; pProEx; ampicillin resistance) and KRas 1-169; His tag with TEV site (N, cleaved yes); made in house; host or cells: E. coli BL21(DE3)

[2] = target: T2, KRas^G12D GDP and KRas^G12D GNP (Homo sapiens, UniProt P01116, G12D); experiment: Dual-probe (9 and 12 in mixture) 19F CPMG NMR monitoring of both nucleotide states; type: binding; conditions: 6 μM each state
T2 construct: HRas 1-166 (His-TEV-N; pProEx; ampicillin resistance) and KRas 1-169; His tag with TEV site (N, cleaved yes); made in house; host or cells: E. coli BL21(DE3)
Excerpt: (1 picture or pasted object on this page, not shown here)

[3] = target: KRas^G12D; design: method as in PMID 34889605; conditions: cited from earlier work
[4] = Aqueous solubility; type: physicochemical
[5] = target: T1, KRas^G12D GDP; experiment: 19F CPMG NMR probe binding (I/I0 vs probe concentration), GDP state
Excerpt: (§1) We then sought to determine whether these SIIG-binders could serve as probe ligands to detect KRas proteins by ^19F NMR spectroscopy. One-dimensional CPMG experiments [90-(τ-180-τ)n], in which a spin–echo with delay τ is looped n times, attenuate signal intensity as a function of the transverse relaxation rate (R2) and total spin echo time (2·τ·n). Prior studies have shown that reversible binding of proteins to fluorine-containing small molecules induces an increase in the observed ^19F R2 at long values of τ, which maximize the exchange contribution to R2.[24],[25] […] Further modifications to the probe structure were required to improve its binding affinity and the sensitivity of the ^19F CPMG NMR assay.
(§2) The probe and protein concentrations were varied to determine the dependence on each binding partner. The normalized integrals (I/I0) of the probes decreased exponentially with increasing protein concentrations (Figure 2C, Figure S2C,D). The normalized integrals increased with increasing probe concentrations, and KD values for the probe–protein binding were extracted by fitting the data to eq 1 (Figure 2D, SI).
(§3) All non-linear regressions were performed in Graphpad Prism v9 with data points handled as individual values.
(§4) Constrained constants are noted.
(§5) Integrals (I) from single-point CPMG experiments were calculated by dividing the probe’s absolute integral by the standard’s absolute integral (3-trifluoromethylphenol, 3TFMP) from the same sample. The resulting integral values (I) were averaged (n=3) and then normalized by dividing by the measurement obtained in the absence of protein (I0, n=1 or 3). Errors in I/I 0 and -ln(I/I0) were propagated from the standard devi ations (SD) in I and I 0. In all cases, I and I0 were measured from the same premixed aliquot of probe and 3 -trifluoromethylphenol.
(§6) The KD values of probes were calculated by fitting normalized integrals to equation 1 , where I and I0 are the integrals in the presence and absence of protein, respectively, A is a constant in Hz, t is the total spin-echo time (2·τ·n), and [P]0 and [L]0 are the total concentrations of protein and probe, respectively (constraining [P]0 and t). See the supplementary information for derivation.
(§7) I⁄I = e−A∙t∙[P]0⁄(KD+[L]0) (eq 1) […]
(§8) Preparation of Ras proteins.
(§9) The plasmids for bacterial expression of HRas 1-166 (His-TEV-N; pProEx; ampicillin resistance) and KRas 1-169 (His-TEV-N; pJ411; kanamycin resistance) have been previously published.1 Mutants were obtained by site-directed mutagenesis (Q5, NEB; or Genscript Biotech). BL21(DE3) competent cells were transformed with 1-2 ng of plasmid.
(§10) Cultures for the preparation of natural abundance isotope proteins were grown at 37 °C (A600 0.4 -0.6) in Terrific Broth (Sigma Aldrich), induced (1 mM IPTG), and allowed to express protein overnight at 18 °C. Cultures for the preparation of U -15N proteins were grown and induced in M9 minimal media supplemented with 1 g/L 15NH4Cl (CIL).
(§11) Cells were collected by centrifugation, lysed by sonication (Tris buffer pH 8.0, supplemented with 1 mM PMSF or 1 tablet per 50 ml EDTA-free cOmplete, Roche), and cleared by centrifugation. His -tagged Ras proteins were isolated with Co TALON resin (Takara Bio), the nucl eotide was exchanged to GDP by dialysis (0.5 mM EDTA), the His tag was cleaved with TEV protease, and the protein was purified by anion exchange (Tris buffer pH 8.0, 50 -500 NaCl gradient, HiTrap Q HP, Cytiva) and gel filtration (HEPES storage buffer pH 7.5 , Superdex 75, GE or Cytiva).
(§12) Nucleotide exchange from GDP to GPPNHP (Jena Biosciences) was performed with samples of protein reserved prior to the final gel filtration purification and according to a published procedure comprising EDTA -mediated exchange, desalting, and cleavage of residual GDP with an alkaline phosphatase (CIP or Quick CIP, NEB) 1-4, and then purified by gel filtration. Proteins were concentrated (10k Amicon Ultra, Millipore) to 0.5-1 mM, concentrations were […]
flash frozen in liquid N2 and stored at -80 °C. […]

[6] = target: T3, U-15N KRas^G12D GDP 1-169 (Homo sapiens, UniProt P01116, G12D); experiment: 1H-15N HSQC NMR binding; conditions: six peaks fit to single site binding curve; pH 7.4, 298 K, 10% dmso-d6, 50 µM protein; error is SD of six peaks
T3 construct: HRas 1-166 (His-TEV-N; pProEx; ampicillin resistance) and KRas 1-169; His tag with TEV site (N, cleaved yes); made in house; host or cells: E. coli BL21(DE3)

[7] = target: T4, KRas^G12D (both nucleotide states) (Homo sapiens, UniProt P01116, G12D); experiment: 19F CPMG NMR detection of KRas^G12D by probes (normalized integrals I/I0); type: binding; conditions: probe 100 μM, KRas^G12D 6 μM; for sensitivity of detection compared to 3 and 4: 160 ms CPMG; for nucleotide state detected: GDP vs GNP
T4 construct: HRas 1-166 (His-TEV-N; pProEx; ampicillin resistance) and KRas 1-169; His tag with TEV site (N, cleaved yes); made in house; host or cells: E. coli BL21(DE3)
Excerpt: as §1
To improve the sensitivity of this method for oncogenic KRas proteins and to explore the relationship between structure and nucleotide-state specificity, we synthesized a series of derivatives of 3 and 4 with varied structure at the aryl ring expected to be buried deepest within the pocket, and these derivatives were evaluated by CPMG NMR spectroscopy against both nucleotide states of KRas^G12D (6 μM; Figure 2A,B). […] Probe 9 relaxed more slowly in the absence of protein (R2,free = 2.4 Hz) than did compounds containing the C-5 hydroxy group (R2,free = 6.3 Hz for 4, 4.4 Hz for 12, and 5.0 Hz for 17), increasing the sensitivity and dynamic range of integral measurements with this probe (Figure S2). Furthermore, probe 9 was confirmed to be a tighter binder to the SIIG of U–^15N KRas^G12D GDP by HSQC NMR compared to 4 (Figure S3).
Figure 2 SAR of SIIG binders enables more sensitive detection of KRas^G12D. (a) Chemical structures of SIIG binders. (b) Normalized integrals (I/I0) from ^19F CPMG NMR spectra (160 ms) of probes (100 μM) with KRas^G12D (6 μM); values are means ± errors propagated from SD (n = 3). (c) Effect of varying KRas^G12D concentration on I/I0; values are means ± errors propagated from SD (n = 3). (d) Effect of varying probe concentration on I/I0; [P]0 = 6 μM for probes 9 and 12, 3 μM for probe 17; individual points shown (n = 3); data fit to eq 1 (SI).
as §8, §9, §10, §11, §12
flash frozen in liquid N2 and stored at -80 °C.
Storage buffer: 20 mM HEPES, 150 mM NaCl, 1 mM MgCl2. Titrated to pH 7.5 with NaOH. Storage buffer for U- […]

[8] = tested on: panel of KRas proteins (G12 and Q61 mutations), GDP and GNP states; experiment: 19F CPMG NMR detection of a panel of KRas and HRas proteins; type: binding; conditions: probe 100 μM, protein 6 μM, 160 ms CPMG
Procedure: The closely related protein HRas 1–166 contains only one residue difference within the SIIG binding site (Q95 in HRas vs H95 in KRas). HRas was only weakly detected by this method; however, the results with HRas^Q95H closely matched those obtained with KRas^WT.
Figure 3 ^19F CPMG NMR spectroscopy detects a variety of oncogenic KRas proteins. Normalized integrals (I/I0) from ^19F CPMG NMR spectra (160 ms) of 100 μM 9 (a), 12 (b), or 17 (c) in the presence of 6 μM KRas or HRas proteins; values are means ± errors propagated from the SDs of I and I0 (n = 3).
as §8, §9, §10
Cells were collected by centrifugation, lysed by sonication (Tris buffer pH 8.0, supplemented with 1 mM PMSF or 1 tablet per 50 ml EDTA-free cOmplete, Roche), and cleared by centrifugation. […]
1D 1H (ZGESGP) and 2D 1H-15N fast HSQC (FHSQCCF3GPPH, NS = 8, TDF1 = 256, GARP decoupling) spectra were recorded at 298 K on an 800 MHz Bruker Avance NEO spectrometer equipped with an actively shielded Z-gradient 5 mm TCI cryoprobe (H&F/C/N) using programs from the pulse program library (TopSpin 4.0.8). Spectra were processed and analyzed with Bruker Topspin 4.0 and CCPNMR Analysis v3.5 1H chemical shifts were referenced to 1 mM DSS at 0 ppm; 15N chemical shifts were referenced indirectly with Ξ = 0.101329118. […]

[9] = target: T5, KRas^G12D GNP (Homo sapiens, UniProt P01116, G12D); experiment: 19F CPMG NMR probe binding (I/I0 vs probe concentration), GNP state
T5 construct: HRas 1-166 (His-TEV-N; pProEx; ampicillin resistance) and KRas 1-169; His tag with TEV site (N, cleaved yes); made in house; host or cells: E. coli BL21(DE3)
Excerpt: as §1, §2, §3, §4, §5, §6, §7, §8
as §9, with “plasmid. […]” for “plasmid.”

[10] = 19F CPMG 160 ms, varying probe concentration, [P]0 = 6 μM for 9 and 12, 3 μM for 17, fit to eq 1, read-out: KD
[11] = non-linear regression eq 1, t=0.16 s, read-out: KD (extracted value, Table S1)
[12] = 19F CPMG 160 ms, varying probe concentration, [P]0 = 6 μM for 12, 3 μM for 17, fit to eq 1, read-out: KD

Kd [5, 10]	Kd [5, 11]	sensitivity of detection compared to 3 and 4 [7]	SMILES	nucleotide state detected [7]	detection of oncogenic KRas proteins [8]	further results
			C=CC(=O)N1CC2(CC(n3nc(-c4ccc5c(cnn5C)c4)c(-c4c(Cl)c(C)cc5[nH]ncc45)c3C)C2)C1 [JDQ443]			occupancy of the SIIP of KRas^G12D [1]: did not occupy
			C#Cc1c(F)ccc2cc(O)cc(-c3ncc4c(N5CC6CCC(C5)N6)nc(OC[C@@]56CCCN5C[C@H](F)C6)nc4c3F)c12 [MRTX1133]			nucleotide state occupied ([2]; 9 and 12 50 μM each, MRTX849 60 μM, MRTX1133 in excess 15 μM, KD2 30 μM): occupied both nucleotide states; nucleotide state occupied ([2]; substoichiometric quantities (2, 4, and 6 μM)): selectively occupied the GDP-state; Ki ([3]; GDP state): < 1 pM; binding affinity [3]: subpicomolar
			C=CC(=O)Nc1cc(Cl)cc(NC(=O)c2cnn(-c3ccc(OC)cc3)c2C(F)(F)F)c1 [compound 2]			aqueous solubility [4]: very low
200 µM	204 µM	increased sensitivity	NCCNC(=O)COCCOc1ccc(-n2ncc(C(=O)Nc3ccc(O)c(Cl)c3)c2C(F)(F)F)cc1 [compound 9]	specifically detected the GDP state	most sensitively detected the GDP state of KRas^G12D	Kd [6]: 580 ± 280 µM
310 µM	307 µM	increased sensitivity	Cc1c(Cl)cc(O)cc1NC(=O)c1cnn(-c2ccc(OCCOCC(=O)NCCN)cc2)c1C(F)(F)F [compound 12]	detected both nucleotide states with similar sensitivity	detected both nucleotide states of all oncogene products tested	Kd [9, 12]: 780 µM; Kd [9, 11]: 778 µM
		increased sensitivity	NCCNC(=O)COCCOc1ccc(-n2ncc(C(=O)Nc3cc(O)cc(Cl)c3C3CC3)c2C(F)(F)F)cc1 [compound 14]			
		increased sensitivity	Cc1c(NC(=O)c2cnn(-c3ccc(OCCOCC(=O)NCCN)cc3)c2C(F)(F)F)ccc(O)c1Cl [compound 15]			
350 µM	352 µM	increased sensitivity	NCCNC(=O)COCCOc1ccc(-n2ncc(C(=O)Nc3cc(O)cc4ccccc34)c2C(F)(F)F)cc1 [compound 17]	detected both nucleotide states with similar sensitivity	detected both nucleotide states of all oncogene products tested	Kd [9, 12]: 390 µM; Kd [9, 11]: 393 µM
